Biological target: T1, PKM2, human recombinant (Homo sapiens, UniProt P14618)
T1 construct: purchased BPS 50295
Experiment: PKM2 enzymatic activity assay (Kinase-Glo Plus luminescence);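 as to Max activity Group: percent increase over no-compound signal after subtracting the no-PKM2 background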
Format: biochemical
Conditions: for AC50: 0.1 nM PKM2, 0.1 mM ADP, 0.5 mM PEP, 1 hour, room temperature, read-out: AC50 group; for Emax: 1 h, read-out: Max activity Group; for Max activity: 30 μM
Method: PKM2 performs the following enzymatic reaction, where the PKM2 substrates, PEP (phosphoenolpyruvate) and ADP, are converted to pyruvate and ATP as follows:
All of the enzymatic reactions were conducted in duplicates at room temperature for 1 hour in a 50 μL mixture containing: • PKM2 assay buffer (50 mM Imidazole, pH 7.2; 7 mM MgCl2; 50 mM KCl; 0.01% Tween; • and 0.05% BSA), 0.1 mM ADP, 0.5 mM PEP, 0.1 nM PKM2 enzyme (PKM2, human recombinant (BPS catalog number 50295)) and the indicated test compound. Fructose 1,6 biphosphat e, (FBP (Sigma)) was used as a positive control for activation at concentration of 0.5 mM. After enzymatic reactions, 50 μL of Kinase-Glo® Plus reagent (Promega kit) was added to each well and luminescence was measured using a BioTek Synergy™ 2 microplate reader.
PKM2 activity assays were performed in duplicates at each concentration. The luminescence data were analyzed using the computer software, GraphPad PRISM®. In the absence of the compound, the luminescence was defined as 0% activity. The percent activity in the presence of each compound was calculated according to the following equation:
% Activity=[(L−Lb)/(Lt−Lb)−1]×100%
where L=the luminescence in the presence of the test compound, Lb=the luminescence in the absence of PKM2, and Lt=the luminescence intensity in the absence of the test compound. The % activity values versus a series of compound concentrations were plotted using non-linear regression analysis of Sigmoidal dose-response curve generated with the equation Y=B+(T−B)/1+10^((LogEC50-X)×Hill Slope), where Y=percent activity, B=minimum percent activity, T=maximum percent activity, X=logarithm of compound and Hill Slope=slope factor or Hill coefficient. The AC50 values, shown in Table 2 were determined for the indicated test compounds as the concentration causing a half-maximal percent activity.

[1] = maximum percent activity, luminescence without compound = 0% activity

T1 sequence (P14618 whole entry): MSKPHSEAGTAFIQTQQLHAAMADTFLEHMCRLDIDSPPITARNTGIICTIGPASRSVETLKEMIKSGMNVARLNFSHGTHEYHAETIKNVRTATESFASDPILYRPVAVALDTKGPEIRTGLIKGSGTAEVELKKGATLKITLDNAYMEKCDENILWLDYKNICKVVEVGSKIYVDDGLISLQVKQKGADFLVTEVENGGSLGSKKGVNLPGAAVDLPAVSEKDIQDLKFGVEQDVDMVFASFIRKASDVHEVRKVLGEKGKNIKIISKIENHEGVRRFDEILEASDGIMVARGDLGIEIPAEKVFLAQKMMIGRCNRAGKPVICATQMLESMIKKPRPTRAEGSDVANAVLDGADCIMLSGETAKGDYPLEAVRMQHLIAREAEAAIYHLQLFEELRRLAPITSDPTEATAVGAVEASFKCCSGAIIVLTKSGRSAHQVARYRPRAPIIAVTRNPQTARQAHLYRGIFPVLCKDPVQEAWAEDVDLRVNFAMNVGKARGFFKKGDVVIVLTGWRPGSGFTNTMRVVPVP

| SMILES | AC50 [nM] | Emax [1] [%] | Max activity | Max activity Group [1] |
| --- | --- | --- | --- | --- |
| COc1ccc(C2CC(c3ccc(NS(=O)(=O)c4c(F)cccc4F)cc3)=NN2C(C)=O)cc1 (stereo not shown) [Compound 5A] | ≤ 1000 | ≥ 200 |  |  |
| COc1ccc(C2CC(c3ccc(NS(=O)(=O)c4ccccc4C(F)(F)F)cc3)=NN2C(C)=O)cc1 (stereo not shown) [Compound 20A] | ≤ 1000 | 130 to 200 |  |  |
| CCS(=O)(=O)Nc1ccc(C2=NN(C(C)=O)C(c3cccs3)C2)cc1 (stereo not shown) [Compound 67A] | 10000 to 100000 | 130 to 200 |  |  |
| CCS(=O)(=O)Nc1ccc(C2=NN(C(C)=O)C(c3ccc(OC)cc3)C2)cc1 (single isomer, unassigned) [Compound 3A] | ≤ 1000 | 130 to 200 |  |  |
| CCNS(=O)(=O)c1ccc(C2=NN(C(C)=O)C(c3ccc(OC)cc3)C2)cc1 (stereo not shown) [Compound 10A, 4-(1-acetyl-5-(4-methoxyphenyl)-4,5-dihydro-1H-pyrazol-3-yl)-N-ethylbenzenesulfonamide] | ≤ 1000 | 130 to 200 |  |  |
| COc1ccc(C2CC(c3ccc(NS(=O)(=O)c4c(F)cccc4F)cc3)=NN2C(=O)c2ccco2)cc1 (stereo not shown) [Compound 11A, 2,6-Difluoro-N-(4-(1-(furan-2-carbonyl)-5-(4-methoxyphenyl)-4,5-dihydro-1H-pyrazol-3-yl)phenyl)benzenesulfonamide] | 1000 to 10000 | ≥ 200 |  |  |
| CC(=O)N1N=C(c2ccc3c(c2)CCN3S(C)(=O)=O)CC1c1ccc2c(c1)OCCO2 (stereo not shown) [Compound 9A, 1-(5-(2,3-dihydrobenzo[b][1,4]dioxin-6-yl)-3-(1-(methylsulfonyl)indolin-5-yl)-4,5-dihydro-1H-pyrazol-1-yl)ethanone] | 10000 to 100000 | ≤ 130 |  |  |
| CC(=O)N1N=C(c2ccc(NS(=O)(=O)c3ccc(F)cc3)cc2)CC1c1ccc(F)cc1 (single isomer, unassigned) [Compound 35A] | ≤ 1000 | ≤ 130 |  |  |
| COc1cc(C2CC(c3ccc(NS(C)(=O)=O)cc3)=NN2C(C)=O)cc(OC)c1OC (stereo not shown) [Compound 56A] |  |  | −6% (30 μM) |  |
| COc1ccc(C2CC(c3ccc(NS(=O)(=O)c4ccc(F)cc4)cc3)=NN2C(C)=O)cc1 (single isomer, unassigned) [Compound 12A] | 10000 to 100000 | ≤ 130 |  |  |
| CC(=O)N1N=C(c2ccc(NS(C)(=O)=O)cc2)CC1c1ccc2c(c1)OCO2 (stereo not shown) [Compound 52A] | ≤ 1000 | ≤ 130 |  |  |
| COc1ccc(C2CC(c3ccc(NS(=O)(=O)c4ccc(OC)cc4)cc3)=NN2C(C)=O)cc1 (racemic) [Compound 19A, N-(4-(1-Acetyl-5-(4-methoxyphenyl)-4,5-dihydro-1H-pyrazol-3-yl)phenyl)-4-methoxy benzenesulfonamide] | ≤ 1000 | ≥ 200 |  |  |
| CCS(=O)(=O)Nc1ccc(C2=NN(S(C)(=O)=O)C(c3ccc(OC)cc3)C2)cc1 (stereo not shown) [Compound 55A] |  |  | −5% (30 μM) |  |
| CCS(=O)(=O)Nc1ccc(C2=NN(C(=O)c3ccco3)C(c3ccc(OC)cc3)C2)cc1 (stereo not shown) [Compound 53A] | 1000 to 10000 | ≥ 200 |  |  |
| COc1ccc(C2CC(c3ccc(NS(=O)(=O)c4ccc5c(c4)OCCO5)cc3)=NN2C(C)=O)cc1 (stereo not shown) [Compound 7A, N-(4-(1-acetyl-5-(4-methoxyphenyl)-4,5-dihydro-1H-pyrazol-3-yl)phenyl)-2,3-dihydrobenzo[b][1,4]dioxine-6-sulfonamide] | 1000 to 10000 | 130 to 200 |  |  |
| CC(=O)N1N=C(c2ccc(NS(=O)(=O)c3ccc(F)cc3)cc2)CC1c1ccc2c(c1)OCCO2 (stereo not shown) [Compound 8A, N-(4-(1-Acetyl-5-(2,3-dihydrobenzo[b][1,4]dioxin-6-yl)-4,5-dihydro-1H-pyrazol-3-yl)phenyl)-4-fluorobenzenesulfonamide] | 1000 to 10000 | 130 to 200 |  |  |
| CC(=O)N1N=C(c2ccc(NS(=O)(=O)c3ccc(F)cc3)cc2)CC1c1ccc(F)cc1 (racemic) [Compound 25A, N-(4-(1-Acetyl-5-(4-fluorophenyl)-4,5-dihydro-1H-pyrazol-3-yl)phenyl)-4-fluoro benzenesulfonamide] | ≤ 1000 | ≤ 130 |  |  |
| COc1ccc(C2CC(c3ccc(NS(=O)(=O)c4ccccc4)cc3)=NN2C(C)=O)cc1 (stereo not shown) [Compound 16A] | 1000 to 10000 | 130 to 200 |  |  |
| COc1ccc(C2CC(c3ccc(NS(=O)(=O)c4c(F)cccc4F)cc3)=NN2C(=O)c2cccnc2)cc1 (stereo not shown) [Compound 15A, 2,6-difluoro-N-(4-(5-(4-methoxyphenyl)-1-nicotinoyl-4,5-dihydro-1H-pyrazol-3-yl)phenyl)benzenesulfonamide] | 1000 to 10000 | ≥ 200 |  |  |
| COc1ccc(C2CC(c3ccc(NS(C)(=O)=O)cc3)=NN2C(C)=O)cc1OC (stereo not shown) [Compound 54A] |  |  | 6% (30 μM) |  |
| CC(=O)N1N=C(c2ccc(NS(=O)(=O)c3ccc(F)cc3)cc2)CC1c1ccc2c(c1)CCO2 (stereo not shown) [Compound 22A, N-(4-(1-Acetyl-5-(2,3-dihydrobenzofuran-5-yl)-4,5-dihydro-1H-pyrazol-3-yl)phenyl)-4-fluorobenzenesulfonamide] | ≤ 1000 | 130 to 200 |  |  |
| CCS(=O)(=O)Nc1ccc(C2=NN(C(C)=O)C(c3ccccc3F)C2)cc1 (stereo not shown) [Compound 57A] | ≤ 1000 | ≤ 130 |  |  |
| CCS(=O)(=O)Nc1ccc(C2=NN(C(C)=O)C(c3ccc4c(c3)OCCO4)C2)cc1 (stereo not shown) [Compound 4A] | ≤ 1000 | 130 to 200 |  |  |
| CCS(=O)(=O)Nc1ccc(C2=NN(C(C)=O)C(c3ccc(OC)cc3)C2)cc1 (single isomer, unassigned) [Compound 2A, N-(4-(1-Acetyl-5-(4-methoxyphenyl)-4,5-dihydro-1H-pyrazol-3-yl)phenyl)ethane sulfonamide] | ≤ 1000 |  |  |  |
| CCS(=O)(=O)Nc1ccc(C2=NN(C(C)=O)C(c3ccc(Cl)o3)C2)cc1 (stereo not shown) [Compound 59A] |  |  | 47% (30 μM) |  |
| COc1ccc(C2CC(c3ccc(NS(=O)(=O)c4c(F)cccc4F)cc3)=NN2C(=O)c2ccccn2)cc1 (stereo not shown) [Compound 14A, 2,6-Difluoro-N-(4-(5-(4-methoxyphenyl)-1-picolinoyl-4,5-dihydro-1H-pyrazol-3-yl)phenyl)benzenesulfonamide] | 1000 to 10000 | ≤ 130 |  |  |
| COc1ccc(C2CC(c3ccc(NS(=O)(=O)c4cccc(Cl)c4)cc3)=NN2C(C)=O)cc1 (stereo not shown) [Compound 28A, N-(4-(1-Acetyl-5-(4-methoxyphenyl)-4,5-dihydro-1H-pyrazol-3-yl)phenyl)-3-chloro benzenesulfonamide] | 1000 to 10000 | ≤ 130 |  |  |
| COc1ccc(C2CC(c3ccc(NS(=O)(=O)c4ccccc4)cc3)=NN2C(C)=O)cc1 (stereo not shown) [Compound 17A, N-(4-(1-Acetyl-5-(4-methoxyphenyl)-4,5-dihydro-1H-pyrazol-3-yl)phenyl)benzene sulfonamide] | 1000 to 10000 |  |  | C (C: ≦130%) |
| COc1ccc(C2CC(c3ccc(NS(=O)(=O)c4ccc(OC)c(F)c4)cc3)=NN2C(C)=O)cc1 (stereo not shown) [Compound 44A] | ≤ 1000 | 130 to 200 |  |  |
| CC(=O)N1N=C(c2ccc(NS(=O)(=O)c3ccc(F)cc3)cc2)CC1c1ccc(F)c(F)c1 (stereo not shown) [Compound 27A, N-(4-(1-Acetyl-5-(3,4-difluorophenyl)-4,5-dihydro-1H-pyrazol-3-yl)phenyl)-4-fluoro benzenesulfonamide] | 1000 to 10000 | ≤ 130 |  |  |

Source: patent publication US20120302609A1, “Pyrazolines for the Modulation of PKM2” (Dynamix Pharmaceuticals LTD., priority 2011, published 2012)
